This is an account of results in patent publication US8703936B2, “Compositions and methods for modification of biomolecules” (The Regents of the University of California, priority 2010, dated 2014).

Several values for one entry are separate records, joined by “and”; a condition that tells them apart may be missing. Equal entries are not always repeated.

Data set [1] has as its system CHO cells grown with Ac4ManNAz (azide-labeled glycans). As to the kind of experiment: Cell-surface labeling of azido glycans on CHO cells and imaging by fluorescence microscopy. The data set is classed as cell-based, Chinese hamster. The method, then:
BARAC-Fluor (compound 17) was evaluated as a reagent for direct fluorescence imaging of live Chinese hamster ovary (CHO) cells. CHO cells grown either in the presence or absence of 50 μM Ac4ManNAz were treated with […] BARAC-Fluor (compound 17) for 5 min at rt, washed and then imaged (FIG. 9(a)-(h)).
CHO cells were incubated for 3 days in medium containing 50 μM Ac4ManNAz in an eight-well LabTek II chambered cover glass (Nunc). The medium was poured off, and the cells were washed three times with 200 μl of FACS buffer. The cells then were treated with a solution of BARAC-Fluor, diluted from a 1 mM stock solution in DMSO, in FACS buffer for 5 minutes at 5 μM at room temperature. The cells were also treated with Hoechst 33342 dye to stain the nucleus (1:1,000 dilution in medium of a 1 mg/ml stock solution in DMSO) as soon as possible after the addition of BARAC-Fluor. The cells washed four times with 200 μl of FACS buffer, and imaged at room temperature.
For the no-wash experiment the cells were treated as before, but were incubated in a 250 nM solution of BARAC-Fluor in FACS-buffer. After 25 minutes at room temperature Hoechst 33342 dye (1:1,000 dilution in medium of a 1 mg/ml stock solution in DMSO) was added. After an additional 5 minutes, the cells were imaged without washing away excess reagent. […]

Data set [2] in a line: Reaction rate of BARAC with 2-azido-N-isopropylacetamide (1H NMR kinetics). The data set is classed as physicochemical. The settings on record: CD3CN, 25° C., 1:1 at 9.2 mM, three replicates. Here is the method:
The reaction of BARAC (compound 15) and 2-azido-N-isopropylacetamide was monitored by ^1H NMR for 30 min. at 25° C. BARAC and the azidoacetamide were separately dissolved in CD3CN and mixed together in a 1:1 ratio at concentrations at close to 10 mM (9.2 mM). Hexamethyldisilane (approx 0.3 equiv) was used as an internal standard. The percent conversion was calculated by the ratio between the formation of products and hexamethyldisilane as determined by integration. No products other than the regioisomers of addition were apparent by ^1H NMR. The ratio of triazole isomers is complicated by rotamers. The second-order rate constant was determined by plotting 1/[compound 15] versus time. The plot was fit to a linear regression and the slope corresponds to the second-order rate constant. Shown are data from three replicate experiments.

Data set [3] is described as follows: Stability to chromatography and storage. The settings on record: traditional chromatography; storage at room temperature. The data set is classed as physicochemical. The source says:
Oxidation of indole (compound 10) with excess m-CPBA opened the central rings to give the cyclic keto-amide (compound 11), which was unstable to silica-gel purification. These reaction conditions left the terminal alkene untouched. Treatment of the potassium enolate of ketone (compound 11) with trifluoromethanesulfonyl anhydride gave compound 12. Selective reaction of the terminal alkene with a nitrile oxide generated in situ from chlorooxime (compound 13) installed a linker for conjugation to a probe molecule as reported by Huisgen, R. and Gutsmiedl, et al. Huisgen, R. Angew. Chem. Int. Ed., (1963), 2, 565-598; and Gutsmiedl, K.; Wirges, C. T.; Ehmke, V.; Carell, T. Org. Lett., 2009, 11, 2405-2408. Reaction of compound 14 with CsF introduced the strained alkyne in under 30 min at rt. The synthesis of BARAC (compound 15) from compound 9 was accomplished in 6 steps in 18% overall yield (see FIG. 11).

Data set [4] is described as follows: Reaction rate of BARAC with benzyl azide (1H NMR kinetics). The data set is classed as physicochemical. The method, then: The reactivity of BARAC (compound 15) was studied using benzyl azide as a model substrate. The second-order rate constant in acetonitrile at room temperature (rt) was 0.96 M^−1s^−1 (see FIG. 1), over 12-fold higher than the rate constant for DIFO under identical conditions and over 450 times higher than for an unactivated cyclooctyne. The half-life for the reaction of equimolar amounts of BARAC with benzyl azide at 10 mM was about 45 s at rt.
The reaction of BARAC (compound 15) and benzyl azide was monitored by ^1H NMR for 30 min. at 25° C. BARAC and benzyl azide were separately dissolved in CD3CN and mixed together in a 1:1 ratio at concentrations at 10 mM. A 2:1 ratio was used to determine the exact ratio of reagents based on remaining starting material upon completion of the reaction. The percent conversion was calculated by the disappearance of BARAC and benzyl azide relative to the formation of product as determined by integration. No products other than the two regioisomers of addition were apparent by ^1H NMR. The triazole isomers were produced in a ˜1:1 ratio. The second-order rate constant was determined by plotting 1/[compound 15] versus time. The plot was fit to a linear regression and the slope corresponds to the second-order rate constant. Shown in FIG. 1 are data from four replicate experiments.

A short description of data set [5]: Potential background reaction of BARAC with glutathione. The data set is classed as physicochemical. Particulars: 5 mM glutathione in CD3CN:D2O (1:2), 2 mM BARAC, rt.
In data set [6] the test system is Jurkat cells. Particulars: 1 μM, 1 h at 25° C., 7-AAD (FIG. 5).
Method: Jurkat cells were incubated in the presence (+Az, black bar) or absence (−Az, gray bar) of Ac4ManNAz for 3 d. […] Prior to flow cytometry analysis, half the cells were treated with 7-amino-actinomycin D (7-AAD) following the procedure reported at http://www.bdbiosciences.com/external_files/pm/doc/tds/cell_bio/live/web_enabled/68981E—559925.pdf. The samples were diluted and analyzed by flow cytometry. The error bars represent standard deviations from three replicate samples.
In all plots, the x-axis indicates the degree of cell-surface glycan labeling as measured by FITC fluorescence (FL1). For the plots shown if FIG. 6(a)-(d), the y-axis represents the degree of 7-AAD (FL3, cell viability marker).
The subject of data set [7] is Jurkat cells treated with Ac4ManNAz (cell-surface azido sialic acids, SiaNAz).
Method: Cultured Jurkat cells were treated with peracetylated N-azidoacetyl mannosamine (Ac4ManNAz) to introduce the corresponding azido sialic acids (SiaNAz) into their cell-surface glycoproteins and lipids.
Jurkat cells were incubated in untreated media or media containing 25 μM Ac4ManNAz. After 3 d, the cells were twice concentrated (500×g, 3 min, 4° C.) and resuspended in 10 mL FACS buffer (PBS containing 1% FCS, 2×10 mL) and cells (approx 350,000 per a well) were placed in a 96 well V-bottom plate. The cells were concentrated by centrifugation (2500×g, 3 min, 4° C.), resuspended in 200 μL cold FACS buffer, and again concentrated by centrifugation (2500×g, 3 min, 4° C.). […] After 1 h, the cells were thrice concentrated by centrifugation (2500×g, 3 min, 4° C.) and resuspended in 200 μL cold FACS buffer. Following and additional concentration by centrifugation (2500×g, 3 min, 4° C.), cells were resuspended in FACS buffer (100 μL) containing FITC-avidin (1:200 dilution of 1 mg/mL stock, Sigma-Aldrich) and incubated in the dark at 4° C. for 15 min. Following the incubation, cells were concentrated by centrifugation, resuspended in 200 μL cold FACS buffer, concentrated by centrifugation, and another FITC-avidin incubation was performed. After the second FITC-avidin labeling, the cells were thrice concentrated by centrifugation (2500×g, 3 min, 4° C.) and resuspended in 200 μL cold FACS buffer. The cells were then diluted to 400 μL for flow cytometry analysis. Flow cytometry was performed on a BD Biosciences FACSCalibur flow cytometer equipped with a 488-nm argon laser. All flow cytometry experiments were performed with three replicate samples.
Jurkat cells were incubated in the presence or absence of 25 μM Ac4ManNAz for 3 d. […] MFI=mean fluorescence intensity and has arbitrary units (Au).
Jurkat cells were incubated with (+Az) or without (−Az) 25 M Ac4ManNAz for 3 days. The cells were labeled with 1 μM cyclooctyne-biotin for various times and then treated with FITC-avidin. […] The degree of labeling was quantified by flow cytometry. The level of fluorescence was reported in mean fluorescence intensity (MFI, arbitrary unit). Error bars represent the standard deviation of three replicate experiments. […] MFI reported as difference between signal of cells +Az and signal of cells −Az.

By half-life is commonly meant the time needed for the level to fall by half in the phase considered.

On to `O=C(OCc1ccc(C2=NOC(CN3C(=O)c4ccccc4C#Cc4ccccc43)C2)cc1)N1CCN(C(=O)c2ccccc2-c2c3ccc(=O)cc-3oc3cc(O)ccc23)CC1` (stereo not drawn) [BARAC-Fluor], for which the “labeling in no-wash experiment” value in data set [1] (250 nM, 30 min at rt, imaged without washing (FIG. 9(i)-(p))) was “significant labeling above the background”. The “cell surface fluorescence of azide-labeled cells” value in data set [1] (5 μM, 5 min at rt, washed, 50 μM Ac4ManNAz (FIG. 9(a)-(h))) is recorded as “significant cell surface fluorescence”.
`O=C1c2ccccc2C#Cc2ccccc2N1CC1CC(c2ccc(CO)cc2)=NO1` (stereo not drawn) [BARAC]: the second-order rate constant is 0.64 ± 0.06 M⁻¹ s⁻¹ in data set [2]; 0.96 M⁻¹ s⁻¹ and 0.96 ± 0.04 M⁻¹ s⁻¹ in data set [4] (benzyl azide, acetonitrile (CD3CN), rt (25° C.), 1:1 at 10 mM). Besides, the stability result in data set [3] is “stable to traditional chromatography and storage at room temperature”. In addition, in data set [4] (versus unactivated cyclooctyne), the “times higher rate constant than an unactivated cyclooctyne” value was “over 450 times”. Also, the half-life at 2 mM in data set [5] is 24 h.
As to BARAC-biotin, the “cytotoxicity compared to cells treated with no cyclooctyne reagent” value in data set [6] is “not accompanied by any cytotoxicity”. Further, the “cell labeling at low concentration” value in data set [7] (50 nM, 1 h, Jurkat (FIG. 3)) was “significant cell labeling”. Further, the “labeling compared with DIFO-biotin and DIBO-biotin” value in data set [7] (1 μM cyclooctyne-biotin, after 1 h (FIG. 8(b))) is “more labeling than DIFO-biotin and DIBO-biotin”. Further, the “fold higher signal than either DIFO-biotin or DIBO-biotin” value in data set [7] (1 μM, after 1 min (FIG. 8(c))) was 10 fold. The azide-specific cell labeling result in data set [7] (Jurkat ±25 μM Ac4ManNAz 3 d, reagent 1 h, versus FITC-avidin alone (FIG. 3)) is reported as “robust azide-specific labeling with no significant background labeling”.
